Assay results as given in the supplement of paper PMC10307832.

Compound: CN1CCC(CC1)OC2=CC(=C(C=C2)NC3=NC=C4C(=N3)N(C(=O)N4C)C5CCCC5)OC [AZ3146] + O=C(CCCCCCC(=O)Nc1ccccc1)NO [Vorinostat] (partner 1 µM)
Assay: relative viability (nuclei count vs DMSO), 5 days (fraction); higher = more cells survive
Conditions: first compound 8 µM
Method in brief: (§1)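 Lung cancer cell lines, seeded in 1536-well plates, were treated the following day by pin tool with a single drug or with five library-drug doses (not always all listed) in √10 steps on top of a fixed anchor-drug dose. Cells were fixed and nuclei stained in one step after 5 days, and nuclei were counted. Relative viability is the nuclei count for treated wells divided by that for vehicle wells, reported as medians of duplicate plates.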

Compared with NCI-H1437, NCI-H661 is lower in relative viability: 0.538 for the first, 0.505 for the second.

Compared with COR-L 105, H3255 is higher in relative viability: 0.487 for the first, 0.897 for the second.

Work on NCI-H2347 yielded a relative viability of 0.596.

Compound: CCOC(=O)CCNc1cc(N2CCc3ccccc3CC2)nc(-c2ccccn2)n1 [GSK-J4] + Nc1nc2[nH]cc(CCc3ccc(C(=O)N[C@@H](CCC(=O)O)C(=O)O)cc3)c2c(=O)[nH]1 [Pemetrexed] (partner 0.2 µM)
Assay: as above
Conditions: first compound 0.5 µM
Method in brief: as §1

First: ChaGo-K-1
Second: NCI-H1734
The relative viability of the first is lower: 0.259 for the first, 0.424 for the second.

Compared with NCI-H650, NCI-H2228 is lower in relative viability: 0.82 for the first, 0.335 for the second.

Going from HARA to COR-L23, the relative viability falls from 0.219 to 0.185.

Going from LCLC-103H to LXF-289, the relative viability rises from 0.483 to 0.835.

Going from NCI-H322M to LC-2-ad, the relative viability falls from 0.638 to 0.288.

Going from HCC-827 to CAL-12T, the relative viability rises from 0.248 to 1.2.

First: HCC-15
Second: HOP-62
The relative viability of the first is lower: 0.225 for the first, 0.316 for the second.

First: NCI-H460
Second: LU99A
The relative viability of the first is lower: 0.0749 for the first, 0.16 for the second.

First: NCI-H2085
Second: A-427
The relative viability of the first is lower: 0.899 for the first, 0.932 for the second.

Going from NCI-H520 to NCI-H838, the relative viability falls from 0.632 to 0.242.

Compared with NCI-H596, NCI-H3122 is lower in relative viability: 0.519 for the first, 0.205 for the second.

First: BEN
Second: 201T
The relative viability of the first is higher: 0.933 for the first, 0.353 for the second.

Going from NCI-H1993 to NCI-H1355, the relative viability rises from 0.699 to 0.988.

Going from NCI-H2405 to NCI-H1437, the relative viability falls from 1.01 to 0.298.

Going from NCI-H661 to COR-L 105, the relative viability falls from 0.908 to 0.826.

Compared with H3255, NCI-H2347 is lower in relative viability: 0.649 for the first, 0.417 for the second.

Same assay, conditions: first compound 1.581 µM

First: NCI-H1734
Second: NCI-H650
The relative viability of the first is lower: 0.412 for the first, 0.843 for the second.

First: NCI-H2228
Second: HARA
The relative viability of the first is higher: 0.328 for the first, 0.214 for the second.

Going from COR-L23 to LCLC-103H, the relative viability rises from 0.192 to 0.374.

Going from LXF-289 to NCI-H322M, the relative viability falls from 0.776 to 0.588.

Compared with LC-2-ad, HCC-827 is lower in relative viability: 0.281 for the first, 0.26 for the second.

Going from CAL-12T to HCC-15, the relative viability falls from 1.15 to 0.225.

Going from HOP-62 to LU99A, the relative viability falls from 0.3 to 0.158.

First: NCI-H2085
Second: A-427
The relative viability of the first is higher: 0.789 for the first, 0.654 for the second.

Going from NCI-H520 to NCI-H838, the relative viability falls from 0.5 to 0.219.

Compared with NCI-H596, NCI-H3122 is lower in relative viability: 0.485 for the first, 0.201 for the second.

Compared with BEN, 201T is lower in relative viability: 0.759 for the first, 0.301 for the second.

Compared with NCI-H1993, NCI-H1355 is higher in relative viability: 0.585 for the first, 0.975 for the second.

First: NCI-H2405
Second: NCI-H1437
The relative viability of the first is higher: 1 for the first, 0.317 for the second.

Going from NCI-H661 to H3255, the relative viability falls from 0.827 to 0.551.

NCI-H2347 gave a relative viability of 0.411.

Same assay, conditions: first compound 5 µM

Compared with ChaGo-K-1, NCI-H1734 is higher in relative viability: 0.247 for the first, 0.391 for the second.

Going from NCI-H2228 to LCLC-103H, the relative viability rises from 0.342 to 0.378.

First: LXF-289
Second: NCI-H322M
The relative viability of the first is higher: 0.931 for the first, 0.672 for the second.

First: LC-2-ad
Second: HCC-827
The relative viability of the first is lower: 0.247 for the first, 0.258 for the second.

Compared with CAL-12T, HCC-15 is lower in relative viability: 1.4 for the first, 0.217 for the second.

Compared with HOP-62, NCI-H460 is lower in relative viability: 0.324 for the first, 0.0554 for the second.

Going from NCI-H2085 to NCI-H520, the relative viability falls from 0.699 to 0.655.

Going from NCI-H838 to NCI-H596, the relative viability rises from 0.218 to 0.473.

Going from NCI-H3122 to BEN, the relative viability rises from 0.201 to 0.501.

Going from 201T to NCI-H1993, the relative viability rises from 0.312 to 0.575.

Compared with NCI-H1355, NCI-H1437 is lower in relative viability: 0.889 for the first, 0.3 for the second.

Compared with NCI-H661, COR-L 105 is higher in relative viability: 0.883 for the first, 1.12 for the second.

Compared with H3255, NCI-H2347 is lower in relative viability: 0.491 for the first, 0.378 for the second.

Same assay, conditions: first compound 15.81 µM

Going from ChaGo-K-1 to NCI-H1734, the relative viability rises from 0.259 to 0.407.

First: NCI-H650
Second: NCI-H2228
The relative viability of the first is higher: 0.833 for the first, 0.36 for the second.

Compared with HARA, COR-L23 is lower in relative viability: 0.263 for the first, 0.212 for the second.

Compared with LCLC-103H, LXF-289 is higher in relative viability: 0.42 for the first, 0.805 for the second.

Compared with NCI-H322M, LC-2-ad is lower in relative viability: 0.394 for the first, 0.267 for the second.

Going from HCC-827 to CAL-12T, the relative viability rises from 0.229 to 1.27.

First: HCC-15
Second: HOP-62
The relative viability of the first is lower: 0.209 for the first, 0.329 for the second.

Compared with NCI-H460, LU99A is higher in relative viability: 0.0643 for the first, 0.178 for the second.

NCI-H2085 and A-427 are the same in relative viability: 0.883 for the first, 0.883 for the second.

Going from NCI-H520 to NCI-H838, the relative viability falls from 0.57 to 0.248.

Going from NCI-H596 to NCI-H3122, the relative viability falls from 0.465 to 0.206.

Compared with BEN, 201T is lower in relative viability: 0.731 for the first, 0.33 for the second.

Going from NCI-H1993 to NCI-H1355, the relative viability rises from 0.562 to 0.858.

Going from NCI-H2405 to NCI-H1437, the relative viability falls from 1 to 0.297.

Compared with NCI-H661, COR-L 105 is higher in relative viability: 0.883 for the first, 1.09 for the second.

Compared with H3255, NCI-H2347 is lower in relative viability: 0.503 for the first, 0.394 for the second.

Same assay, conditions: first compound 50 µM

Going from ChaGo-K-1 to NCI-H1734, the relative viability rises from 0.266 to 0.364.

Going from NCI-H650 to NCI-H2228, the relative viability falls from 0.842 to 0.364.

Going from HARA to COR-L23, the relative viability falls from 0.243 to 0.207.

Going from LCLC-103H to LXF-289, the relative viability rises from 0.509 to 0.813.

Going from NCI-H322M to LC-2-ad, the relative viability falls from 0.682 to 0.272.

First: HCC-827
Second: CAL-12T
The relative viability of the first is lower: 0.285 for the first, 0.946 for the second.

Going from HCC-15 to HOP-62, the relative viability rises from 0.245 to 0.364.

Compared with NCI-H460, LU99A is higher in relative viability: 0.0656 for the first, 0.166 for the second.

Compared with NCI-H2085, A-427 is lower in relative viability: 0.961 for the first, 0.463 for the second.

First: NCI-H520
Second: NCI-H838
The relative viability of the first is higher: 0.547 for the first, 0.199 for the second.

Compared with NCI-H596, NCI-H3122 is lower in relative viability: 0.549 for the first, 0.19 for the second.

Going from BEN to 201T, the relative viability falls from 0.573 to 0.364.

First: NCI-H1993
Second: NCI-H1355
The relative viability of the first is lower: 0.476 for the first, 0.992 for the second.

Compared with NCI-H2405, NCI-H1437 is lower in relative viability: 1.02 for the first, 0.262 for the second.

First: NCI-H661
Second: COR-L 105
The relative viability of the first is lower: 0.788 for the first, 0.937 for the second.

Going from H3255 to NCI-H2347, the relative viability falls from 0.502 to 0.442.
